Test results taken from US9968616B2, “Discovery of FDA-approved drugs as inhibitors of fatty acid binding protein 4 using molecular docking screening” (The Chinese University of Hong Kong, priority 2014, dated 2018).

What was measured:
[1] = system: 3T3-L1 cells; assay: Adipolysis assay (glycerol release) in 3T3-L1 cells; assay type: cell-based, Mouse; settings: 10 μM, FIG. 3B; for isoproterenol-stimulated adipolysis: isoproterenol 100 nM for 24 hours
Protocol: Mouse 3T3-L1 pre-adipocytes were cultured in Dulbecco's Modified Eagle's Medium (DMEM) supplemented with 10% fetal bovine serum, 100 units/ml penicillin and 100 μg/ml streptomycin at 37° C. in a humidified 95% air and 5% CO2 atmosphere. All cell culture reagents were purchased from Invitrogen (Carlsbad, Calif., USA). To initiate 3T3-L1 adipocyte differentiations, the standard differentiation cocktail (250 nM dexamethasone, 100 mM 3-isobutyl-1-methylxanthine and 175 nM human insulin, all purchased from Sigma, St. Louis, Mo.) was added to the medium after 2 days post-confluence. After 2 days, the medium was replaced with fresh complete medium containing insulin. Culture medium was changed every 2 days. Levofloxacin or benzbromarone (BBR) (Sigma, St. Louis, Mo.) was dissolved in DMSO and added to the medium at the beginning of pre-adipocyte differentiations. […] Confluent 3T3-L1 pre-adipocytes (day 0) were stimulated by the differentiation cocktail and cultured for 2 days with culture medium (Control), 10 μM of levofloxacin (Levofloxacin) or 10 μM benzbromarone (BBR). At day 2, the culture medium was collected and the extent of adipolysis was evaluated using Adipolysis Assay Kit (Cayman Chemical: 10009381, MI, US). During adipolysis, triglycerides are hydrolysed to release free fatty acids and glycerol. The amount of glycerol released into the medium as measured by the kit is proportional to the degree of adipolysis. Basal adipolysis and isoproterenol-induced adipolysis were studied. Isoproterenol was included as a positive control for screening pharmaceuticals that are known to regulate the adipolysis. Cells were treated with 100 nM of isoproterenol for 24 hours after the treatment with culture medium, levofloxacin or benzbromarone. Results were repeated at least three times from three independent experiments and presented as mean±SD, n=3 (FIG. 3B). The results were statistically analyzed by one-way ANOVA test. *, P<0.05; compared with the control group. #, P<0.05; compared with the isoproterenol-treated group.

[2] = system: 3T3-L1 cells; assay: Cell viability (MTT assay); assay type: cell-based, Mouse; settings: 10 μM, regardless of the isoproterenol treatment, FIG. 3C
[3] = system: 3T3-L1 cells; settings: 10 μM, reference 31; cited from earlier work
[4] = target: human FABP4 (Homo sapiens, UniProt P15090); assay: FABP4 Inhibitor/Ligand Screening Assay Kit, cell-free ligand displacement fluorescence-labeled probe assay; assay type: binding; settings: for inhibition at 10 µM: read-out: % FABP4 inhibition (10 μM)
[5] = system: 3T3-L1 cells; assay: Oil Red O staining (induction of adipogenesis); assay type: cell-based, Mouse; settings: 10 μM, days 0-6 of differentiation, versus control group, FIG. 3D
[6] = system: PPARγ; assay: Western blot detection of PPARγ protein level in 3T3-L1 cells; assay type: cell-based, Mouse; settings: 10 μM, Day 6, cell lysate, FIG. 3E
Protocol: Mouse 3T3-L1 pre-adipocytes were cultured in Dulbecco's Modified Eagle's Medium (DMEM) supplemented with 10% fetal bovine serum, 100 units/ml penicillin and 100 μg/ml streptomycin at 37° C. in a humidified 95% air and 5% CO2 atmosphere. All cell culture reagents were purchased from Invitrogen (Carlsbad, Calif., USA). To initiate 3T3-L1 adipocyte differentiations, the standard differentiation cocktail (250 nM dexamethasone, 100 mM 3-isobutyl-1-methylxanthine and 175 nM human insulin, all purchased from Sigma, St. Louis, Mo.) was added to the medium after 2 days post-confluence. After 2 days, the medium was replaced with fresh complete medium containing insulin. Culture medium was changed every 2 days. Levofloxacin or benzbromarone (BBR) (Sigma, St. Louis, Mo.) was dissolved in DMSO and added to the medium at the beginning of pre-adipocyte differentiations.
As in the above Oil Red O Staining assay, cells were harvested on Day 6 and the total protein was collected for western blotting to estimate the PPARγ protein level in the treated 3T3-L1 cells. […] Specific bands were detected using […] (BCIP) and nitro blue tetrazolium (NBT) system (Bio-Rad, Hercules, Calif.) and photographed (FIG. 3E). […]

Sequence of human FABP4 (P15090 whole entry): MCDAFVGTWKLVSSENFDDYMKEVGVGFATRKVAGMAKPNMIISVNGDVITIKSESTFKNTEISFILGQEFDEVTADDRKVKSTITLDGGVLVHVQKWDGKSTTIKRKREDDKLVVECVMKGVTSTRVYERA

Row | inhibition at 10 µM [4] | SMILES | basal adipolysis [1] | isoproterenol-stimulated adipolysis [1] | proliferation/viability of 3T3-L1 cells (cytotoxicity) [2] | other results
1 | – | CCc1oc2ccccc2c1C(=O)c1cc(Br)c(O)c(Br)c1 [BBR, benzbromarone] | inhibitory effects were also observed | inhibitory effects were also observed | not affected | adipolysis (literature report) [3]: inhibits the adipolysis
2 | 57.5 ± 12.2% | N[C@@H]1[C@H]2CN(c3nc4c(cc3F)c(=O)c(C(=O)O)cn4-c3ccc(F)cc3F)C[C@@H]12 [Trovafloxacin] | – | – | – | –
3 | 5.12 ± 6.9% | Cc1nc2n(c(=O)c1CCN1CCC(c3noc4cc(F)ccc34)CC1)CCCC2O (stereo not drawn) [Paliperidone] | – | – | – | –
4 | 70 ± 12.2% | C[C@H]1COc2c(N3CCN(C)CC3)c(F)cc3c(=O)c(C(=O)O)cn1c23 [Levofloxacin, (S)-9-fluoro-2,3-dihydro-3-methyl-10-(4-methylpiperazin-1-yl)-7-oxo-7H-pyrido[1,2,3-de]-1,4-benzoxazine-6-carboxylic acid] | inhibited | inhibited | not affected | IC50 ([4]; dose-response, Prism 5, read-out: IC50 FABP4 activity inhibition): 5.83 µM; lipid accumulation (red dots, Oil Red O) [5]: did not promote lipid accumulation; protein expression of PPARγ [6]: did not increase

Row | SMILES | inhibition at 10 µM [4] | basal adipolysis [1] | isoproterenol-stimulated adipolysis [1] | proliferation/viability of 3T3-L1 cells (cytotoxicity) [2] | other results
5 | O=c1[nH]c2ccccc2n1C1CCN(CCCC(c2ccc(F)cc2)c2ccc(F)cc2)CC1 [Pimozide] | 47 ± 11.3% | – | – | – | –
6 | Cc1nc2n(c(=O)c1CCN1CCC(c3noc4cc(F)ccc34)CC1)CCCC2 [Risperidone] | 1.64 ± 12.9% | – | – | – | –
